According to patent US9302999B2, “Substituted triazoles as herbicides” (E. I. DU PONT DE NEMOURS AND COMPANY, priority 2012, dated 2016):

Key:
Type in all cases: in vivo
[1] = test system: foxtail, giant (giant foxtail, Setaria faberii); test: Test A pre-/postemergence: foxtail, giant; settings: for Foxtail, Giant plant response rating: Postemergence; for Plant response rating, Foxtail, Giant: Preemergence
Summary of the method: (§1)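 Seeds were sown in loam/sand blend and sprayed preemergence (directed soil spray) and, simultaneously, postemergence at 2–10 cm, one- to two-leaf stage, using compounds in non-phytotoxic solvent with surfactant. After ~10 days in greenhouse, injury was rated visually versus untreated controls, 0 (no effect) to 100 (complete control).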

[2] = test system: velvetleaf (Abutilon theophrasti); test: Test A pre-/postemergence: velvetleaf; settings: for Velvetleaf plant response rating: Postemergence; for Plant response rating, Velvetleaf: Preemergence
Summary of the method: as §1

[3] = test system: wheat (Triticum aestivum); test: Test A pre-/postemergence: wheat; settings: for Wheat plant response rating: Postemergence; for Plant response rating, Wheat: Preemergence
Summary of the method: as §1

[4] = test system: corn (Zea mays); test: Test A pre-/postemergence: corn; settings: for Corn plant response rating: Postemergence; for Plant response rating, Corn: Preemergence
Summary of the method: as §1

[5] = test system: sedge, umbrella (small-flower umbrella sedge Cyperus difformis); test: Test B flooded paddy: sedge, umbrella; settings: Flood; 250 g ai/ha; applied to paddy water at 2-leaf stage; visually evaluated after 13 to 15 days
Summary of the method: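 Plants were grown to the 2-leaf stage, then pots were flooded to 3 cm above the soil and compounds were applied directly into the paddy water. Water depth was held for the whole test; after 13 to 15 days in a greenhouse, injury was visually rated against untreated controls (0 = no effect, 100 = complete control).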

[6] = test system: winter wheat (Triticum aestivum); test: Test C pre-/postemergence: winter wheat
Summary of the method: (§2)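 Preemergence on seeds in loam/sand, postemergence on 2–18 cm (1–4-leaf) plants in peat-based medium; compounds in non-phytotoxic solvent with surfactant. After 13–15 days in greenhouse, visual rating versus controls, 0 (no effect) to 100 (complete control).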

[7] = test system: nutsedge, yellow (yellow nutsedge, Cyperus esculentus); test: Test C pre-/postemergence: nutsedge, yellow
Summary of the method: as §2

[8] = test system: pigweed (Amaranthus retroflexus); test: Test C pre-/postemergence: pigweed
Summary of the method: as §2

[9] = test system: chickweed (common chickweed, Stellaria media); test: Test C postemergence: chickweed
Summary of the method: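 Pot-grown plants in peat/vermiculite medium sprayed postemergence at 2–18 cm height (1- to 4-leaf stage). Kept in greenhouse 13 to 15 days, then visually rated against untreated controls on a 0–100 scale (0 = no effect, 100 = complete control).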

[10] = 125 g ai/ha, 0 to 100 scale, 0 is no effect, 100 is complete control
[11] = 500 g ai/ha, visual rating on 0 to 100 scale (0 no effect, 100 complete control), approximately ten days
[12] = 125 g ai/ha, 0 to 100 scale (0 no effect, 100 complete control)
[13] = 500 g ai/ha, 0 to 100 scale, 0 is no effect, 100 is complete control
[14] = Postemergence, 31 g ai/ha, scale 0 to 100 (0 no effect, 100 complete control)
[15] = Postemergence, 62 g ai/ha, scale 0 to 100 (0 no effect, 100 complete control)
[16] = Postemergence, 125 g ai/ha, scale 0 to 100, 0 no effect, 100 complete control
[17] = Postemergence, 250 g ai/ha, scale 0 to 100
[18] = Preemergence, 31 g ai/ha, scale of 0 to 100, 0 is no effect, 100 is complete control
[19] = Preemergence, 62 g ai/ha, scale of 0 to 100, 0 is no effect, 100 is complete control
[20] = Preemergence, 125 g ai/ha, scale 0 to 100, 0 no effect, 100 complete control
[21] = Preemergence, 250 g ai/ha, scale 0 to 100, 0 no effect, 100 complete control
[22] = 31 g ai/ha, scale 0 to 100 (0 no effect, 100 complete control)
[23] = 62 g ai/ha, scale 0 to 100 (0 no effect, 100 complete control)
[24] = 125 g ai/ha, scale 0 to 100, 0 no effect, 100 complete control

Fc1ccc(-n2nc(Cc3ccnc(C(F)(F)F)c3)c(OC(F)F)n2)cc1 [Compound 25]
Foxtail, Giant plant response rating [1, 10]: 90 | Foxtail, Giant plant response rating [1, 11]: 90 | Plant response rating, Foxtail, Giant [1, 12]: 100 | Plant response rating, Foxtail, Giant [1, 13]: 100 | Velvetleaf plant response rating [2, 10]: 80 | Velvetleaf plant response rating [2, 11]: 100 | Plant response rating, Velvetleaf [2, 12]: 20 | Plant response rating, Velvetleaf [2, 13]: 80 | Wheat plant response rating [3, 10]: 40 | Wheat plant response rating [3, 11]: 60 | Plant response rating, Wheat [3, 12]: 20 | Plant response rating, Wheat [3, 13]: 80 | Corn plant response rating [4, 10]: 30 | Corn plant response rating [4, 11]: 30 | Plant response rating, Corn [4, 12]: 10 | Plant response rating, Corn [4, 13]: 30 | Plant response rating, Sedge, Umbrella (0 to 100 scale, 0 is no effect, 100 is complete control) [5]: 95 | Plant response rating, Wheat [6, 14]: 10 | Plant response rating, Wheat [6, 15]: 20 | Plant response rating, Wheat [6, 16]: 30 | Plant response rating, Wheat [6, 17]: 30 | Plant response rating, Wheat [6, 18]: 0 | Plant response rating, Wheat [6, 19]: 5 | Plant response rating, Wheat [6, 20]: 10 | Plant response rating, Wheat [6, 21]: 35 | Plant response rating, Nutsedge, Yellow [7, 14]: 5 | Plant response rating, Nutsedge, Yellow [7, 15]: 5 | Plant response rating, Nutsedge, Yellow [7, 16]: 10 | Plant response rating, Nutsedge, Yellow [7, 17]: 10 | Plant response rating, Nutsedge, Yellow [7, 18]: 0 | Plant response rating, Nutsedge, Yellow [7, 19]: 0 | Plant response rating, Nutsedge, Yellow [7, 20]: 0 | Plant response rating, Nutsedge, Yellow [7, 21]: 0 | Plant response rating, Pigweed [8, 14]: 85 | Plant response rating, Pigweed [8, 15]: 95 | Plant response rating, Pigweed [8, 16]: 95 | Plant response rating, Pigweed [8, 17]: 98 | Plant response rating, Pigweed [8, 18]: 100 | Plant response rating, Pigweed [8, 19]: 100 | Plant response rating, Pigweed [8, 20]: 100 | Plant response rating, Pigweed [8, 21]: 100 | Plant response rating, Chickweed [9, 22]: 30 | Plant response rating, Chickweed [9, 23]: 60 | Plant response rating, Chickweed [9, 24]: 98 | Plant response rating, Chickweed ([9]; 250 g ai/ha, scale 0 to 100): 98

FC(F)Oc1nn(-c2ccc(C(F)(F)F)cc2)nc1Cc1ccnc(C(F)(F)F)c1 [Compound 26]
Foxtail, Giant plant response rating [1, 10]: 90 | Foxtail, Giant plant response rating [1, 11]: 90 | Plant response rating, Foxtail, Giant [1, 12]: 100 | Plant response rating, Foxtail, Giant [1, 13]: 100 | Velvetleaf plant response rating [2, 10]: 100 | Velvetleaf plant response rating [2, 11]: 100 | Plant response rating, Velvetleaf [2, 12]: 80 | Plant response rating, Velvetleaf [2, 13]: 90 | Wheat plant response rating [3, 10]: 60 | Wheat plant response rating [3, 11]: 80 | Plant response rating, Wheat [3, 12]: 50 | Plant response rating, Wheat [3, 13]: 80 | Corn plant response rating [4, 10]: 30 | Corn plant response rating [4, 11]: 40 | Plant response rating, Corn [4, 12]: 30 | Plant response rating, Corn [4, 13]: 50 | Plant response rating, Sedge, Umbrella (0 to 100 scale, 0 is no effect, 100 is complete control) [5]: 90 | Plant response rating, Wheat [6, 14]: 10 | Plant response rating, Wheat [6, 15]: 20 | Plant response rating, Wheat [6, 16]: 30 | Plant response rating, Wheat [6, 17]: 35 | Plant response rating, Wheat [6, 18]: 0 | Plant response rating, Wheat [6, 19]: 5 | Plant response rating, Wheat [6, 20]: 30 | Plant response rating, Wheat [6, 21]: 30 | Plant response rating, Nutsedge, Yellow [7, 14]: 10 | Plant response rating, Nutsedge, Yellow [7, 15]: 10 | Plant response rating, Nutsedge, Yellow [7, 16]: 15 | Plant response rating, Nutsedge, Yellow [7, 17]: 15 | Plant response rating, Nutsedge, Yellow [7, 18]: 0 | Plant response rating, Nutsedge, Yellow [7, 19]: 0 | Plant response rating, Nutsedge, Yellow [7, 20]: 0 | Plant response rating, Nutsedge, Yellow [7, 21]: 0 | Plant response rating, Pigweed [8, 15]: 60 | Plant response rating, Pigweed [8, 16]: 80 | Plant response rating, Pigweed [8, 17]: 98 | Plant response rating, Pigweed [8, 18]: 100 | Plant response rating, Pigweed [8, 19]: 100 | Plant response rating, Pigweed [8, 20]: 100 | Plant response rating, Pigweed [8, 21]: 100 | Plant response rating, Chickweed [9, 22]: 40 | Plant response rating, Chickweed [9, 23]: 98 | Plant response rating, Chickweed [9, 24]: 100 | Plant response rating, Chickweed ([9]; 250 g ai/ha, scale 0 to 100): 100
